In ChEMBL document CHEMBL1201862, “PubChem BioAssay data set” (2004):
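These data come from cells grown in 96-well plates and exposed to compound for 48 hours at five concentrations. GI50 marks 50% less growth.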 Active and inactive are the calls of the source. Rule as the data show it: active = GI50 up to about 1.1 µM and inactive = higher.

Columns and labels:
Test in all cases: NCI tumour cell line growth inhibition, 48 h
[1] = tested on: HOP-62
[2] = tested on: 786-0
[3] = tested on: NCI-H460
[4] = tested on: U-251
[5] = tested on: SF-539
[6] = tested on: NCI/ADR-RES
[7] = tested on: CAKI-1
[8] = tested on: UO-31
[9] = tested on: EKVX
[10] = tested on: SF-268
[11] = tested on: Malme-3M
[12] = tested on: SK-OV-3
[13] = tested on: OVCAR-5
[14] = tested on: K562
[15] = tested on: NCI-H226
[16] = tested on: COLO 205
[17] = tested on: CCRF-CEM
[18] = tested on: M14
[19] = tested on: SK-MEL-5
[20] = tested on: RXF 393

Row | Compound | GI50 [1] | GI50 [2] | GI50 [3] | GI50 [4] | GI50 [5] | GI50 [6] | GI50 [7] | GI50 [8] | GI50 [9] | GI50 [10] | GI50 [11] | GI50 [12] | GI50 [13] | GI50 [14] | GI50 [15] | GI50 [16] | GI50 [17] | GI50 [18] | GI50 [19] | GI50 [20]
1 | Cc1nc2ccc(S(=O)(=O)Nc3ccccc3)cc2c(=O)n1NC(=O)CNc1ccccc1 | 73.5 µM (inactive) | > 100 µM (inactive) | > 100 µM (inactive) | > 100 µM (inactive) | > 100 µM (inactive) | > 100 µM (inactive) | > 100 µM (inactive) | > 100 µM (inactive) | > 100 µM (inactive) | > 100 µM (inactive) | > 100 µM (inactive) | > 100 µM (inactive) | > 100 µM (inactive) | > 100 µM (inactive) | > 100 µM (inactive) | > 100 µM (inactive) | > 100 µM (inactive) | > 100 µM (inactive) | – | –
2 | CNc1ncnc2c1cnn2Cc1cn(COCC(O)CO)nn1 (centres undefined) | > 100 µM (inactive) | > 100 µM (inactive) | – | > 100 µM (inactive) | > 100 µM (inactive) | > 100 µM (inactive) | > 100 µM (inactive) | > 100 µM (inactive) | > 100 µM (inactive) | 4.97 µM (inactive) | – | > 100 µM (inactive) | > 100 µM (inactive) | – | > 100 µM (inactive) | > 100 µM (inactive) | > 100 µM (inactive) | > 100 µM (inactive) | > 100 µM (inactive) | –
3 | O=c1cc(-c2ccc(O)cc2)oc2cc(O[C@@H]3O[C@H](CO)[C@@H](O)[C@H](O)[C@H]3O)cc(O)c12 [APIGETRIN] | > 100 µM (inactive) | > 100 µM (inactive) | 34.2 µM (inactive) | 71 µM (inactive) | 48.5 µM (inactive) | 42 µM (inactive) | 0.239 µM (active) | 43.2 µM (inactive) | > 100 µM (inactive) | 51.3 µM (inactive) | – | > 100 µM (inactive) | > 100 µM (inactive) | 77.8 µM (inactive) | 26.7 µM (inactive) | > 100 µM (inactive) | 75.9 µM (inactive) | > 100 µM (inactive) | 46 µM (inactive) | –
4 | O=C1CCC(=O)N2CCCCN12 | > 100 µM (inactive) | > 100 µM (inactive) | > 100 µM (inactive) | > 100 µM (inactive) | > 100 µM (inactive) | – | > 100 µM (inactive) | > 100 µM (inactive) | > 100 µM (inactive) | > 100 µM (inactive) | > 100 µM (inactive) | > 100 µM (inactive) | > 100 µM (inactive) | > 100 µM (inactive) | > 100 µM (inactive) | > 100 µM (inactive) | > 100 µM (inactive) | > 100 µM (inactive) | > 100 µM (inactive) | > 100 µM (inactive)
5 | C/C(CC(=O)Nc1ccc([N+](=O)[O-])cc1)=N\NC(N)=O | > 100 µM (inactive) | > 100 µM (inactive) | > 100 µM (inactive) | > 100 µM (inactive) | > 100 µM (inactive) | – | > 100 µM (inactive) | > 100 µM (inactive) | > 100 µM (inactive) | 98.2 µM (inactive) | > 100 µM (inactive) | > 100 µM (inactive) | > 100 µM (inactive) | > 70.8 µM (inactive) | > 100 µM (inactive) | > 55.6 µM (inactive) | > 44.6 µM (inactive) | > 76.6 µM (inactive) | > 68.7 µM (inactive) | > 100 µM (inactive)
6 | CCOC(=O)Cc1csc(Nc2ccccc2[N+](=O)[O-])n1 | > 100 µM (inactive) | > 100 µM (inactive) | > 100 µM (inactive) | > 100 µM (inactive) | > 100 µM (inactive) | – | > 100 µM (inactive) | > 100 µM (inactive) | > 100 µM (inactive) | > 100 µM (inactive) | > 100 µM (inactive) | > 100 µM (inactive) | > 100 µM (inactive) | > 100 µM (inactive) | > 100 µM (inactive) | > 100 µM (inactive) | > 100 µM (inactive) | > 100 µM (inactive) | > 100 µM (inactive) | > 100 µM (inactive)
7 | Cc1c(C2Cc3ccccc3N2)c2ccccc2n1C (centres undefined) | > 100 µM (inactive) | > 100 µM (inactive) | 79.1 µM (inactive) | > 100 µM (inactive) | > 100 µM (inactive) | – | > 100 µM (inactive) | > 100 µM (inactive) | > 100 µM (inactive) | > 100 µM (inactive) | > 100 µM (inactive) | > 100 µM (inactive) | > 100 µM (inactive) | > 100 µM (inactive) | > 100 µM (inactive) | > 100 µM (inactive) | > 100 µM (inactive) | > 100 µM (inactive) | > 100 µM (inactive) | > 100 µM (inactive)
8 | COC(=O)C1C(C(=O)OC)C2(OC)c3ccccc3-c3ccccc3C12 (centres undefined) | 71.6 µM (inactive) | 75.2 µM (inactive) | 34.4 µM (inactive) | 42.9 µM (inactive) | 66.5 µM (inactive) | – | 40.1 µM (inactive) | 31 µM (inactive) | 28.7 µM (inactive) | 45.1 µM (inactive) | 47.9 µM (inactive) | 80 µM (inactive) | > 100 µM (inactive) | 19.8 µM (inactive) | 49.5 µM (inactive) | 16.1 µM (inactive) | 24.7 µM (inactive) | 34.2 µM (inactive) | 18.7 µM (inactive) | 40.9 µM (inactive)
9 | Cc1ccc2c(c1)SC(c1cc3c(cc1Br)OCO3)S2 (centres undefined) | > 31.6 µM (inactive) | > 31.6 µM (inactive) | > 31.6 µM (inactive) | > 31.6 µM (inactive) | > 31.6 µM (inactive) | – | > 76 µM (inactive) | 19.7 µM (inactive) | > 31.6 µM (inactive) | > 31.6 µM (inactive) | > 31.6 µM (inactive) | > 31.6 µM (inactive) | > 31.6 µM (inactive) | 26.9 µM (inactive) | > 31.6 µM (inactive) | > 31.6 µM (inactive) | > 31.6 µM (inactive) | > 31.6 µM (inactive) | > 31.6 µM (inactive) | 12.3 µM (inactive)
10 | COC(=O)[C@@H]1C(=O)O[C@@H](c2cc(OC)c(OC)cc2OC)[C@@H]1C(=O)OC.COC(=O)[C@H]1C(=O)O[C@@H](c2cc(OC)c(OC)cc2OC)[C@@H]1C(=O)OC | > 100 µM (inactive) | > 100 µM (inactive) | > 100 µM (inactive) | > 100 µM (inactive) | > 100 µM (inactive) | – | > 100 µM (inactive) | > 100 µM (inactive) | > 100 µM (inactive) | > 100 µM (inactive) | > 100 µM (inactive) | > 100 µM (inactive) | > 100 µM (inactive) | > 100 µM (inactive) | > 100 µM (inactive) | > 100 µM (inactive) | > 100 µM (inactive) | > 100 µM (inactive) | > 100 µM (inactive) | > 100 µM (inactive)
11 | CCC1C(C(=O)Nc2ccccc2C)=C(C)NC(C)=C1c1ccccc1C (centres undefined) | > 100 µM (inactive) | > 100 µM (inactive) | > 44.1 µM (inactive) | > 100 µM (inactive) | > 100 µM (inactive) | – | > 100 µM (inactive) | > 100 µM (inactive) | > 100 µM (inactive) | > 40.6 µM (inactive) | > 100 µM (inactive) | > 100 µM (inactive) | > 100 µM (inactive) | 80 µM (inactive) | > 100 µM (inactive) | > 77.1 µM (inactive) | 55.1 µM (inactive) | > 100 µM (inactive) | > 100 µM (inactive) | > 100 µM (inactive)
